In PubChem BioAssay (NCI):
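Where inhibition never reached the appropriate level, the endpoint shown equals the highest concentration tested. Otherwise, values were interpolated linearly from a five-concentration, 48-hour dose response in 96-well plates. GI50 = concentration required for 50% inhibition of growth. TGI marks complete inhibition of growth.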

Columns and labels:
Test in all cases: NCI-60 cell line screen, 48 h
786-0 renal = system: 786-0 renal
ACHN renal = system: ACHN renal
BT-549 breast = system: BT-549 breast
CCRF-CEM leukemia = system: CCRF-CEM leukemia
HOP-62 NSCLC = system: HOP-62 NSCLC
HOP-92 NSCLC = system: HOP-92 NSCLC
HT29 colon = system: HT29 colon
IGROV1 ovarian = system: IGROV1 ovarian
MDA-MB-231 breast = system: MDA-MB-231 breast
MDA-MB-435 = system: MDA-MB-435
OVCAR-3 ovarian = system: OVCAR-3 ovarian
SF-268 CNS = system: SF-268 CNS
SW-620 colon = system: SW-620 colon
U251 CNS = system: U251 CNS
EKVX NSCLC = system: EKVX NSCLC

Row | Compound | TGI (786-0 renal) [µM] | TGI (ACHN renal) [µM] | TGI (BT-549 breast) [µM] | TGI (CCRF-CEM leukemia) [µM] | TGI (HOP-62 NSCLC) [µM] | TGI (HOP-92 NSCLC) [µM] | TGI (HT29 colon) [µM] | TGI (IGROV1 ovarian) [µM] | TGI (MDA-MB-231 breast) [µM] | TGI (MDA-MB-435) [µM] | TGI (OVCAR-3 ovarian) [µM] | TGI (SF-268 CNS) [µM] | TGI (SW-620 colon) [µM] | TGI (U251 CNS) [µM] | TGI (EKVX NSCLC) [µM] | GI50 (EKVX NSCLC) [µM] | GI50 (HOP-92 NSCLC) [µM] | GI50 (HT29 colon) [µM] | GI50 (IGROV1 ovarian) [µM] | GI50 (SF-268 CNS) [µM]
1 | N#Cc1nc(CSCc2ccccc2)oc1N | > 100 | > 100 | > 100 | > 100 | > 100 | > 100 | > 100 | > 100 | > 100 | > 100 | > 100 | > 100 | > 100 | > 100 |  |  |  |  |  | 
2 | CC1=NN(c2nc(N)nc(/C(C#N)=C/c3ccc([N+](=O)[O-])o3)n2)C(C)(C)C1 | 2.99 | 3.49 | 9.24 | > 100 | 31.3 | 3.4 | 4.37 | 3.82 | 3.29 | 6.38 | 11.1 | 16.2 | 3.71 | 11.3 | 9.04 |  |  |  |  | 
3 | CSc1ccccc1P(c1ccccc1SC)c1ccccc1SC | > 100 | > 100 | > 100 | > 100 | > 100 | > 100 |  |  | > 100 | > 100 |  | > 100 | > 100 | > 100 | > 100 |  |  |  |  | 
4 | CCOc1cc(-c2nc3ccccn3c2/N=C/c2cc([N+](=O)[O-])cc([N+](=O)[O-])c2O)ccc1O | > 100 | > 100 | > 100 | > 100 | > 100 | > 100 | > 100 | > 100 | > 100 | > 100 | > 100 | > 100 | > 100 | > 100 | > 100 |  |  |  |  | 
5 | O[C@@]1(c2cccs2)c2cccc(Cl)c2[C@](O)(c2cccs2)c2cccc(Cl)c21 | 32.5 | 39.5 | 48.1 | > 100 | > 100 | > 100 | 35.5 | 33 | 71 | 35 | 37.1 | 66.8 | 44.8 | 33.2 | 44.9 |  |  |  |  | 
6 | CC1(C)OCC2(CO1)CSCCCSCC1(COC(C)(C)OC1)CSCCCSC2 | > 100 |  | > 100 | > 100 | > 100 | > 100 | > 100 | > 100 | > 100 | > 100 | > 100 | > 100 | > 100 | > 100 | > 100 |  |  |  |  | 
7 | Cc1ccc(N/C(Sc2ccccc2)=C(/C(Cl)=C(Cl)Cl)[N+](=O)[O-])c(C)c1 | 39.1 | > 100 | 29.1 | 76.1 | 59.7 | 45.8 | 35.6 | 40.2 | 33.2 | 27.7 |  | 29.5 | 36.7 | 26.7 | 65.1 |  |  |  |  | 
8 | COc1ccc(N)c(C(O)CCNC(C)=O)c1 (stereo not given) | > 100 | > 100 | > 100 | > 100 |  | > 100 | > 100 | > 100 | > 100 | > 100 | > 100 | > 100 | > 100 | > 100 | > 100 |  |  |  |  | 
9 | N#Cc1nc(C2CC2)oc1N | > 100 | > 100 | > 100 | > 100 | > 100 | > 100 | > 100 | > 100 | > 100 | > 100 | > 100 | > 100 | > 100 | > 100 | > 100 |  |  |  |  | 
10 | CN1CCC(CNC(=O)CCCCCCCCC(=O)NCC2(c3ccccc3)CCN(C)CC2)(c2ccccc2)CC1 | > 100 | > 100 | > 100 | > 100 | > 100 |  | > 100 | > 100 | > 100 | > 100 | > 100 | 57.6 | > 100 | > 100 | 38.8 |  |  |  |  | 
11 | Cc1c(/C=N/NC(=S)Nc2cccc(Cl)c2)c(=O)n(-c2ccccc2)n1C | 37 | 37.5 | 75.1 | > 100 | 26.9 | 31.7 | > 100 | 42.4 | 43.8 | > 100 |  | 36.7 | > 100 | 44.6 | 33.3 |  |  |  |  | 
12 | O=C(O)c1nc2cc(C(F)(F)F)ccc2nc1Nc1ccc(Cl)c(Cl)c1 | 29.3 | 36 | 27.5 |  | 27.6 | 23.1 | 28.8 | 39.3 | 48.8 | 18.6 | 26.4 | 36.4 | 22.7 | 33.6 | 42.4 |  |  |  |  | 
13 | COC(=O)c1ccc(Oc2nc3ccccc3nc2-c2cccs2)cc1 | > 100 | > 100 | > 100 | > 100 | 24.9 |  | > 100 | > 100 | 57.8 | > 100 | > 100 | 66 | > 100 |  | > 100 |  |  |  |  | 
14 | C[C@@]12c3c4ccc(C=O)c3Oc3ccc(C=O)c(c31)Oc1c(C=O)ccc(c12)O4 | > 100 | > 100 | > 100 |  | > 100 | > 100 | > 100 | > 100 | > 100 | > 100 | > 100 | > 100 | > 100 | > 100 | > 100 |  |  |  |  | 
15 | Cc1cccc2[nH]c3cc(O)cc(O)c3c(=O)c12 | > 10 | > 10 | > 10 | > 10 | > 10 | > 10 | > 10 | > 10 | > 10 | > 10 | > 10 | > 10 | > 10 | > 10 |  |  |  |  |  | 
16 | O=c1[nH]c(=O)n(C2CC(O)C(CO)O2)cc1OCCc1ccccc1 (stereo not given) | > 100 | > 100 | > 100 | > 100 | > 100 |  | > 100 | > 100 | > 100 | > 100 | > 100 | > 100 |  | > 100 | > 100 |  |  |  |  | 
17 | Clc1cc(OCc2nn3c(Cc4ccccc4)nnc3s2)ccc1OCc1nn2c(Cc3ccccc3)nnc2s1 | 56.8 | > 100 | > 100 |  | > 100 | 46.5 | > 100 | > 100 | 66.8 | > 100 | > 100 | > 100 | > 100 | 51.5 | 66.2 |  |  |  |  | 
18 | COC(=O)/C=C/c1cnc2c(c1)oc(=O)n2CCc1ccccn1 | > 100 | > 100 | > 100 | 69 | > 100 |  | > 100 | > 100 | > 100 | 89 | > 100 | > 100 | > 100 | > 100 | > 100 |  |  |  |  | 
19 | FC(F)(F)c1nc2ccc(SSc3ccc4nc(C(F)(F)F)[nH]c4c3)cc2[nH]1 | > 100 | > 100 | > 100 |  | > 100 | > 100 | > 100 | > 100 | 71.3 | > 100 | > 100 | > 100 | > 100 | > 100 | > 100 | > 100 | > 100 | > 100 | > 100 | > 100
20 | O=C(c1ccco1)C1CC(c2ccc3ccccc3c2O)=NN1 (stereo not given) | > 100 | > 100 | > 100 | > 100 | > 100 | > 100 | > 100 | > 100 | > 100 | > 100 | > 100 | > 100 | > 100 | > 100 |  |  |  |  |  | 
21 | Oc1ccc(Cl)cc1-c1[nH]c(=S)nc(-c2ccccc2)c1Cl | > 100 | > 100 | > 100 | > 100 | > 84.9 | > 100 | > 31.6 | > 100 | 97.2 | > 100 | > 100 | > 100 | > 100 | 97.9 |  |  |  |  |  | 
22 | CCOC(=O)[C@@H]1C[C@H]1c1ccc(O)c(O)c1 | > 100 | > 100 | > 100 |  | > 100 | > 100 | > 100 | > 100 | 63.1 | > 100 | > 100 | > 100 | > 100 | > 100 | > 100 |  |  |  |  | 
23 | COC(=O)CCC1(C)C2CCC1(C)/C(=N/O)C2 (stereo not given) | > 100 | > 100 | > 100 | > 100 | > 100 |  | > 100 | > 100 | > 100 | > 100 | > 100 | > 100 | > 100 | > 100 | > 100 |  |  |  |  | 
24 | CCC(C)C(C(=O)N/N=C1/SCC(=O)N1C)C(=O)N/N=C1/SCC(=O)N1C (stereo not given) | > 100 | > 100 | > 100 |  | > 100 | > 100 | > 100 | > 100 | > 100 | > 100 | > 100 | > 100 | > 100 | > 100 | > 100 |  |  |  |  | 
25 | COc1cc(O)c2c(=O)c(OC)c(-c3ccc4c(c3)OCO4)oc2c1 | > 100 | > 100 | > 30 | > 100 | > 63.1 | > 57.7 | > 100 | > 100 | > 77.4 | > 100 |  | 40 | > 100 | 30.2 | > 100 |  |  |  |  | 
